Measured values: patent US20170050957A1, “4-AMINO-6-(HETEROCYCLIC)PICOLINATES AND 6-AMINO-2-(HETEROCYCLIC)PYRIMIDINE-4-CARBOXYLATES AND THEIR USE AS HERBICIDES” (Dow AgroSciences LLC, priority 2013, published 2017)
Like-named read-outs stand apart in the source and are kept apart here. Blank lines part the entries; values can stand above or below the molecule they belong to.

Tests used:
[1] = test system: Key Grass and Sedge Weeds as well as Grass Crops; assay: Post-emergent Test II herbicidal activity (Table 16); assay type: in vivo; details: post-emergence, 336 h, 14 days after application; for pest or weed control at 35 g/ha: 35 g ai/ha; for pest or weed control at 70 g/ha: 70 g ai/ha; for pest or weed control at 140 g/ha: 140 g ai/ha
Procedure, shortened: (§1)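 Herbicidal effect scored as percent visual injury, 14 d after post-emergent application. Spray solutions contained acetone, DMSO, isopropyl alcohol, crop oil concentrate and surfactant, applied at 187 L/ha to young plants (1-2 true leaves).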

[2] = test system: Key Broadleaf Weed and Crop Species; assay: Post-emergent Test II herbicidal activity (Table 15); assay type: in vivo; details: post-emergence, 336 h, 14 d; for pest or weed control at 35 g/ha: 35 g ai/ha; for pest or weed control at 70 g/ha: 70 g ai/ha; for pest or weed control at 140 g/ha: 140 g ai/ha
Procedure, shortened: as §1

[3] = Cyperus esculentus, yellow nutsedge (Cyperus esculentus), read-out: Visual Growth Reduction (%) 14 Days After Application CYPES
[4] = Echinochloa crus-galli, barnyardgrass (Echinochloa crus-galli), read-out: Visual Growth Reduction (%) 14 Days After Application ECHCG
[5] = Oryza sativa, rice (Oryza sativa), read-out: Visual Growth Reduction (%) 14 Days After Application ORYSA
[6] = Setaria faberi, giant foxtail (Setaria faberi), read-out: Visual Growth Reduction (%) 14 Days After Application SETFA
[7] = Triticum aestivum, wheat, spring (Triticum aestivum), read-out: Visual Growth Reduction (%) 14 Days After Application TRZAS
[8] = Zea mays, maize, corn (Zea mays), read-out: Visual Growth Reduction (%) 14 Days After Application ZEAMX
[9] = Abutilon theophrasti, velvetleaf (Abutilon theophrasti), read-out: Visual Growth Reduction (%) 14 Days After Application, ABUTH
[10] = Amaranthus retroflexus, redroot pigweed (Amaranthus retroflexus), read-out: Visual Growth Reduction (%) 14 Days After Application, AMARE
[11] = Brassica napus, oilseed rape, canola (Brassica napus), read-out: Visual Growth Reduction (%) 14 Days After Application, BRSNN
[12] = Chenopodium album, lambsquarters (Chenopodium album), read-out: Visual Growth Reduction (%) 14 Days After Application, CHEAL
[13] = Euphorbia heterophylla, wild poinsettia (Euphorbia heterophylla), read-out: Visual Growth Reduction (%) 14 Days After Application, EPHHL
[14] = Helianthus annuus, sunflower (Helianthus annuus), read-out: Visual Growth Reduction (%) 14 Days After Application, HELAN

- melting point: 121 to 123 °C
SMILES: COC(=O)c1nc(-c2cccc3ccsc23)c(F)c(N)c1Cl [Compound 3.24]
- pest or weed control at 35 g/ha [1, 3]: 0 to 29%
- pest or weed control at 70 g/ha [1, 3]: 0 to 29%
- pest or weed control at 140 g/ha [1, 3]: 0 to 29%
- pest or weed control at 35 g/ha [1, 4]: 0 to 29%
- pest or weed control at 70 g/ha [1, 4]: 0 to 29%
- pest or weed control at 140 g/ha [1, 4]: 0 to 29%
- pest or weed control at 35 g/ha [1, 5]: 0 to 29%
- pest or weed control at 70 g/ha [1, 5]: 0 to 29%
- pest or weed control at 140 g/ha [1, 5]: 0 to 29%
- pest or weed control at 35 g/ha [1, 6]: 0 to 29%
- pest or weed control at 70 g/ha [1, 6]: 0 to 29%
- pest or weed control at 140 g/ha [1, 6]: 0 to 29%
- pest or weed control at 35 g/ha [1, 7]: 0 to 29%
- pest or weed control at 70 g/ha [1, 7]: 0 to 29%
- pest or weed control at 140 g/ha [1, 7]: 0 to 29%
- pest or weed control at 35 g/ha [1, 8]: 0 to 29%
- pest or weed control at 70 g/ha [1, 8]: 0 to 29%
- pest or weed control at 140 g/ha [1, 8]: 0 to 29%
- pest or weed control at 35 g/ha [2, 9]: 0 to 29%
- pest or weed control at 70 g/ha [2, 9]: 0 to 29%
- pest or weed control at 140 g/ha [2, 9]: 0 to 29%
- pest or weed control at 35 g/ha [2, 10]: 85 to 94%
- pest or weed control at 70 g/ha [2, 10]: 85 to 94%
- pest or weed control at 140 g/ha [2, 10]: 95 to 100%
- pest or weed control at 35 g/ha [2, 11]: 45 to 59%
- pest or weed control at 70 g/ha [2, 11]: 45 to 59%
- pest or weed control at 140 g/ha [2, 11]: 45 to 59%
- pest or weed control at 35 g/ha [2, 12]: 85 to 94%
- pest or weed control at 70 g/ha [2, 12]: 95 to 100%
- pest or weed control at 140 g/ha [2, 12]: 95 to 100%
- pest or weed control at 35 g/ha [2, 13]: 0 to 29%
- pest or weed control at 70 g/ha [2, 13]: 0 to 29%
- pest or weed control at 140 g/ha [2, 13]: 0 to 29%
- pest or weed control at 35 g/ha [2, 14]: 60 to 74%
- pest or weed control at 70 g/ha [2, 14]: 60 to 74%
- pest or weed control at 140 g/ha [2, 14]: 85 to 94%

- melting point: 188 to 190 °C
SMILES: COC(=O)c1nc(-c2ccc3[nH]ncc3c2)c(F)c(N)c1Cl [Compound 4.01]
- pest or weed control at 35 g/ha [1, 3]: 0 to 29%
- pest or weed control at 70 g/ha [1, 3]: 0 to 29%
- pest or weed control at 140 g/ha [1, 3]: 0 to 29%
- pest or weed control at 35 g/ha [1, 4]: 0 to 29%
- pest or weed control at 70 g/ha [1, 4]: 0 to 29%
- pest or weed control at 140 g/ha [1, 4]: 0 to 29%
- pest or weed control at 35 g/ha [1, 5]: 0 to 29%
- pest or weed control at 70 g/ha [1, 5]: 0 to 29%
- pest or weed control at 140 g/ha [1, 5]: 0 to 29%
- pest or weed control at 35 g/ha [1, 6]: 0 to 29%
- pest or weed control at 70 g/ha [1, 6]: 0 to 29%
- pest or weed control at 140 g/ha [1, 6]: 0 to 29%
- pest or weed control at 35 g/ha [1, 7]: 0 to 29%
- pest or weed control at 70 g/ha [1, 7]: 0 to 29%
- pest or weed control at 140 g/ha [1, 7]: 0 to 29%
- pest or weed control at 35 g/ha [1, 8]: 0 to 29%
- pest or weed control at 70 g/ha [1, 8]: 0 to 29%
- pest or weed control at 140 g/ha [1, 8]: 0 to 29%
- pest or weed control at 35 g/ha [2, 9]: 0 to 29%
- pest or weed control at 70 g/ha [2, 9]: 0 to 29%
- pest or weed control at 140 g/ha [2, 9]: 0 to 29%
- pest or weed control at 35 g/ha [2, 10]: 0 to 29%
- pest or weed control at 70 g/ha [2, 10]: 45 to 59%
- pest or weed control at 140 g/ha [2, 10]: 60 to 74%
- pest or weed control at 35 g/ha [2, 11]: 0 to 29%
- pest or weed control at 70 g/ha [2, 11]: 0 to 29%
- pest or weed control at 140 g/ha [2, 11]: 0 to 29%
- pest or weed control at 35 g/ha [2, 12]: 0 to 29%
- pest or weed control at 70 g/ha [2, 12]: 60 to 74%
- pest or weed control at 140 g/ha [2, 12]: 60 to 74%
- pest or weed control at 35 g/ha [2, 13]: 0 to 29%
- pest or weed control at 70 g/ha [2, 13]: 0 to 29%
- pest or weed control at 140 g/ha [2, 13]: 0 to 29%
- pest or weed control at 35 g/ha [2, 14]: 0 to 29%
- pest or weed control at 70 g/ha [2, 14]: 0 to 29%
- pest or weed control at 140 g/ha [2, 14]: 0 to 29%

- melting point: 156 to 159 °C
SMILES: COC(=O)c1nc(-c2ccc3c(cnn3C)c2)c(F)c(N)c1Cl [Compound 4.03]
- pest or weed control at 35 g/ha [1, 3]: 0 to 29%
- pest or weed control at 70 g/ha [1, 3]: 0 to 29%
- pest or weed control at 140 g/ha [1, 3]: 0 to 29%
- pest or weed control at 35 g/ha [1, 4]: 60 to 74%
- pest or weed control at 70 g/ha [1, 4]: 75 to 84%
- pest or weed control at 140 g/ha [1, 4]: 75 to 84%
- pest or weed control at 35 g/ha [1, 5]: 0 to 29%
- pest or weed control at 70 g/ha [1, 5]: 0 to 29%
- pest or weed control at 140 g/ha [1, 5]: 0 to 29%
- pest or weed control at 35 g/ha [1, 7]: 0 to 29%
- pest or weed control at 70 g/ha [1, 7]: 0 to 29%
- pest or weed control at 140 g/ha [1, 7]: 0 to 29%
- pest or weed control at 35 g/ha [1, 8]: 0 to 29%
- pest or weed control at 70 g/ha [1, 8]: 0 to 29%
- pest or weed control at 140 g/ha [1, 8]: 0 to 29%
- pest or weed control at 35 g/ha [2, 9]: 0 to 29%
- pest or weed control at 70 g/ha [2, 9]: 0 to 29%
- pest or weed control at 140 g/ha [2, 9]: 0 to 29%
- pest or weed control at 35 g/ha [2, 10]: 0 to 29%
- pest or weed control at 70 g/ha [2, 10]: 45 to 59%
- pest or weed control at 140 g/ha [2, 10]: 75 to 84%
- pest or weed control at 35 g/ha [2, 11]: 0 to 29%
- pest or weed control at 70 g/ha [2, 11]: 0 to 29%
- pest or weed control at 140 g/ha [2, 11]: 0 to 29%
- pest or weed control at 35 g/ha [2, 12]: 95 to 100%
- pest or weed control at 70 g/ha [2, 12]: 95 to 100%
- pest or weed control at 140 g/ha [2, 12]: 95 to 100%
- pest or weed control at 35 g/ha [2, 13]: 45 to 59%
- pest or weed control at 70 g/ha [2, 13]: 60 to 74%
- pest or weed control at 140 g/ha [2, 13]: 75 to 84%
- pest or weed control at 35 g/ha [2, 14]: 0 to 29%
- pest or weed control at 70 g/ha [2, 14]: 45 to 59%
- pest or weed control at 140 g/ha [2, 14]: 60 to 74%
